Data: PubChem BioAssay (NCI)
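Test compounds were applied to cells in 96-well plates for 48 hours at 5 doses. The concentration for full growth arrest is given as TGI.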

Assays:
Assay in all cases: NCI tumour cell line growth inhibition, 48 h
[1] = system: T-47D breast
[2] = system: MDA-MB-435
[3] = system: TK-10 renal
[4] = system: HS 578T breast
[5] = system: SK-MEL-5 melanoma
[6] = system: HCC-2998 colon
[7] = system: IGROV1 ovarian
[8] = system: OVCAR-5 ovarian
[9] = system: OVCAR-3 ovarian
[10] = system: SN12C renal
[11] = system: ACHN renal
[12] = system: SR leukemia
[13] = system: SF-295 CNS
[14] = system: NCI-H226 lung
[15] = system: NCI-H522 lung
[16] = system: M14 melanoma
[17] = system: PC-3 prostate
[18] = system: LOX IMVI melanoma
[19] = system: UACC-62 melanoma
[20] = system: DU-145 prostate
[21] = system: COLO 205 colon
[22] = system: HCT-15 colon
[23] = system: HOP-92 NSCLC
[24] = system: OVCAR-4 ovarian
[25] = system: SNB-75 CNS
[26] = system: OVCAR-8 ovarian
[27] = system: CCRF-CEM leukemia
[28] = system: KM12 colon
[29] = system: HOP-62 NSCLC
[30] = system: HCT-116 colon
[31] = system: UO-31 renal
[32] = system: SK-OV-3 ovarian
[33] = system: A549 NSCLC
[34] = system: SF-539 CNS
[35] = system: MDA-MB-231 breast
[36] = system: HL-60(TB) leukemia
[37] = system: SNB-19 CNS
[38] = system: U251 CNS
[39] = system: MOLT-4 leukemia
[40] = system: MALME-3M melanoma
[41] = system: A498 renal
[42] = system: HT29 colon
[43] = system: 786-0 renal
[44] = system: EKVX NSCLC
[45] = system: MDA-N
[46] = system: SK-MEL-28 melanoma
[47] = system: RPMI-8226 leukemia
[48] = system: NCI-H460 lung
[49] = system: SW-620 colon
[50] = system: CAKI-1 renal
[51] = system: NCI/ADR-RES ovarian
[52] = system: NCI-H23 lung
[53] = system: SK-MEL-2 melanoma
[54] = system: RXF 393 renal
[55] = system: K-562 leukemia
[56] = system: BT-549 breast
[57] = system: MCF7 breast
[58] = system: UACC-257 melanoma
[59] = system: SF-268 CNS

In the case of Cc1ccc(/C(O)=C/c2nc3ccccc3[nH]c2=O)c(C)c1, the TGI [1] is reported as > 69.7 µM, the TGI [2] is reported as > 100 µM and the TGI [3] is reported as 21.1 µM. The TGI [4] was 59.2 µM, the TGI [5] was > 92.1 µM and the TGI [6] was > 100 µM. The TGI [7] was > 59.9 µM, the TGI [8] was > 100 µM and the TGI [9] was > 73.7 µM. For the same compound, the TGI [10] was 69.2 µM, the TGI [11] was 30 µM and the TGI [12] was > 100 µM. It also gave a TGI [13] of 53 µM, a TGI [14] of 37 µM and a TGI [15] of 38.4 µM. For the same compound, the TGI [16] was > 96 µM, the TGI [17] was > 61.5 µM and the TGI [18] was > 100 µM. The TGI [19] was 43.7 µM, the TGI [20] was > 70.5 µM and the TGI [21] was > 100 µM. For the same compound, the TGI [22] was > 100 µM, the TGI [23] was 16.9 µM and the TGI [24] was 6.17 µM. For the same compound, the TGI [25] was 20.3 µM, the TGI [26] was 25.4 µM and the TGI [27] was > 100 µM. The TGI [28] was > 61.5 µM, the TGI [29] was 34.3 µM and the TGI [30] was 55.8 µM. The TGI [31] was 30.6 µM, the TGI [32] was 33.6 µM and the TGI [33] was > 58.8 µM. For the same compound, the TGI [34] was 31.6 µM, the TGI [35] was > 46.6 µM and the TGI [36] was > 100 µM. For the same compound, the TGI [37] was > 45.9 µM, the TGI [38] was 36.7 µM and the TGI [39] was > 100 µM. For the same compound, the TGI [40] was 98.8 µM, the TGI [41] was 9.12 µM and the TGI [42] was > 86.3 µM. The TGI [43] was 14.7 µM, the TGI [44] was 56.1 µM and the TGI [45] was > 100 µM. For the same compound, the TGI [46] was 54.6 µM, the TGI [47] was > 100 µM and the TGI [48] was 46.8 µM. For the same compound, the TGI [49] was > 100 µM, the TGI [50] was 18.3 µM and the TGI [51] was 55.6 µM. For the same compound, the TGI [52] was > 65 µM, the TGI [53] was > 80.4 µM and the TGI [54] was > 49.2 µM. For the same compound, the TGI [55] was > 100 µM, the TGI [56] was > 57.5 µM and the TGI [57] was > 100 µM. For the same compound, the TGI [58] was > 75.9 µM and the TGI [59] was 25 µM.

C1=NCCNCCN=Cc2ccccc2OCc2cccc(n2)COc2ccccc21 was tested, and the TGI [1] was > 100 µM, the TGI [2] was > 68.7 µM and the TGI [3] was > 75.6 µM. The TGI [4] was > 100 µM, the TGI [5] was > 49.5 µM and the TGI [6] was > 55.5 µM. For the same compound, the TGI [7] was > 100 µM, the TGI [8] was > 100 µM and the TGI [9] was > 65.3 µM. For the same compound, the TGI [10] was > 100 µM, the TGI [11] was > 100 µM and the TGI [12] was > 100 µM. The TGI [13] was > 51.4 µM, the TGI [14] was > 75.7 µM and the TGI [15] was > 66.8 µM. For the same compound, the TGI [16] was > 46.6 µM, the TGI [17] was > 95.3 µM and the TGI [18] was 34 µM. For the same compound, the TGI [19] was > 64.3 µM, the TGI [20] was > 100 µM and the TGI [21] was > 100 µM. For the same compound, the TGI [22] was 24.8 µM, the TGI [23] was > 100 µM and the TGI [24] was 99.7 µM. For the same compound, the TGI [25] was > 31.2 µM, the TGI [26] was 37.5 µM and the TGI [27] was > 34.3 µM. The TGI [28] was > 62.2 µM, the TGI [29] was 54.8 µM and the TGI [30] was > 100 µM. The TGI [31] was > 30.7 µM, the TGI [32] was > 100 µM and the TGI [33] was > 100 µM. The TGI [34] was 11.1 µM, the TGI [35] was > 95.5 µM and the TGI [36] was 6.84 µM. The TGI [37] was > 100 µM, the TGI [38] was > 39.7 µM and the TGI [39] was > 82 µM. The TGI [40] was > 80.7 µM, the TGI [41] was > 100 µM and the TGI [42] was 47.3 µM. For the same compound, the TGI [43] was > 39.1 µM, the TGI [44] was > 100 µM and the TGI [45] was 31.4 µM. The TGI [46] was > 100 µM, the TGI [47] was > 54.1 µM and the TGI [48] was > 100 µM. For the same compound, the TGI [49] was > 75.9 µM, the TGI [50] was > 95.6 µM and the TGI [51] was 21.1 µM. For the same compound, the TGI [52] was > 52.9 µM, the TGI [53] was 99.8 µM and the TGI [54] was > 100 µM. The TGI [55] was > 79.5 µM, the TGI [56] was 44.4 µM and the TGI [57] was > 56.9 µM. The TGI [58] was > 100 µM and the TGI [59] was > 96 µM.
